Earlier results on one compound are cited in patent publication US8442776B2, “Structure of compstatin-C3 complex and use for rational drug design” (The Trustees of the University of Pennsylvania, priority 2007, dated 2013).

As a reminder, the IC50 is the concentration needed to halve the response being measured.

The test system of series [1] is complement system (C3 activation). Particulars: read-out: inhibitory activity IC50.

On to `CC[C@H](C)[C@H](N)C(=O)N[C@H]1CSSC[C@@H](C(=O)N[C@H](C(N)=O)[C@@H](C)O)NC(=O)[C@H](CCCN=C(N)N)NC(=O)[C@H](Cc2cnc[nH]2)NC(=O)[C@H](Cc2cnc[nH]2)NC(=O)CNC(=O)[C@H](Cc2c[nH]c3ccccc23)NC(=O)[C@H](CC(=O)O)NC(=O)[C@H](CCC(N)=O)NC(=O)[C@H](C(C)C)NC(=O)[C@H](C(C)C)NC1=O` [Compstatin], for which the “binding to primate C3” value in the series on primate C3 is “binds only to primate C3”. In series [1], the half-maximal inhibitory concentration (IC50) was 12 µM.
